In US20230310505A1, “COMPOSITION FOR PREVENTING HEARING LOSS CONTAINING MESENCHYMAL STEM CELLS OR EXOSOMES DERIVED THEREFROM AS ACTIVE INGREDIENT” (UNIVERSITY INDUSTRY FOUNDATION, YONSEI UNIVERSITY WONJU …, priority 2020, published 2023):

Tested on: outer hair cells (OHC) and inner hair cells (IHC) of cochlear explants
Assay: Ototoxic hearing loss induction: cisplatin treatment of cochlear explants, hair cell viability by immunofluorescence
Assay type: cell-based, ICR mice
Settings: cisplatin for 24 hours
Procedure: It is also known that damage to outer hair cells (OHC) and inner hair cells (IHC) of the cochlea leads to hearing loss.
After completion of the treatment, the cochlear explants were fixed with PBS containing 4% formalin for 15 minutes and washed with PBS three times. Next, after incubation with PBS containing 0.1% Triton X-100 for 10 minutes, blocking was performed with PBS containing 4% BSA for 30 minutes. Thereafter, incubation was performed for 1 hour with a rabbit anti-mouse myosin 7a primary antibody (1:400, abcam). After washing with PBS three times, incubation was performed for 1 hour with goat anti-rabbit IgG (H+L) Alexa Fluor 488 antibody (1:500, abcam) with Phalloidine Alexa Fluor 647 (1:1000, abcam). After washing with PBS, the coverslip was transferred to a slide and a drop of Fluoroshield with DAPI (Sigma, USA) was gently applied to the coverslip. The coverslip was sealed with clear nail polish and observed under a fluorescence microscope (FIG. 1B), and the number of OHCs and IHCs was measured to calculate the cell viability (FIG. 1C).

N.N.[Cl][Pt][Cl] [cisplatin]
EC50 (apical turn): 100 µM
EC50 (middle turn and basal turn): 80 µM
